# Source: ChEMBL document CHEMBL1149685, “Novel tethers in ketolide antibiotics” (2007)
# The source made the active and inactive calls. The calls are words filed in the database; no cut-off is given here.
# Tests used:
# Assay type in all cases: functional
# Streptococcus pneumoniae [1] = test: Antibacterial activity against erythromycin-resistant mef expressing Streptococcus pneumoniae 1175
# Haemophilus influenzae [2] = test: Antimicrobial activity against Haemophilus influenzae 1325
# Streptococcus pyogenes [3] = test: Antibacterial activity against erythromycin-resistant ermB expressing Streptococcus pyogenes 1079
# Streptococcus pneumoniae [4] = test: Antibacterial activity against erythromycin-resistant ermB expressing Streptococcus pneumoniae 1095
# Streptococcus pyogenes [5] = test: Antibacterial activity against erythromycin-resistant Streptococcus pyogenes 1068 in mouse soft tissue infection model assessed as reduction in bacterial count at 100 mg/kg, po after 24 hrs
# Streptococcus pneumoniae [6] = test: Protection against erythromycin-resistant Streptococcus pneumoniae 1095 infection in po dosed mouse after 4 days
# Haemophilus influenzae [7] = test: Antibacterial activity against Haemophilus influenzae 1100 in po dosed gerbils
# [8] = Streptococcus pneumoniae, read-out: MIC
Structure (SMILES),MIC (Streptococcus pneumoniae [1]),MIC (Haemophilus influenzae [2]),MIC (Streptococcus pyogenes [3]),MIC (Streptococcus pneumoniae [4]; [8]),MIC (Streptococcus pneumoniae [4]),Activity (Streptococcus pyogenes [5]),PD50 (Streptococcus pneumoniae [6]),ED50 (Haemophilus influenzae [7]),Log10 cfu (Streptococcus pyogenes [5])
CC[C@H]1OC(=O)[C@H](C)C(=O)[C@H](C)[C@@H](O[C@@H]2O[C@H](C)C[C@H](NC)[C@H]2O)[C@](C)(OC)C[C@@H](C)C(=O)[C@H](C)[C@H]2N(CNC(=O)OCc3cnc4ccccc4c3)C(=O)O[C@]12C,< 0.063 mg/L,8 mg/L,64 mg/L,< 0.063 mg/L,,,,,
CC[C@H]1OC(=O)[C@H](C)C(=O)[C@H](C)[C@@H](O[C@@H]2O[C@H](C)C[C@H](N(C)C)[C@H]2O)[C@](C)(OC)C[C@@H](C)C(=O)[C@H](C)[C@H]2N(CNC(=O)NCc3cncc4ccccc34)C(=O)O[C@]12C,< 0.063 mg/L,4 mg/L,16 mg/L,< 0.063 mg/L,,,,,
CC[C@H]1OC(=O)[C@H](C)C(=O)[C@H](C)[C@@H](O[C@@H]2O[C@H](C)C[C@H](N(C)C)[C@H]2O)[C@](C)(OC)C[C@@H](C)C(=O)[C@H](C)[C@H]2N(CNC(=O)OCc3ccnc4ccccc34)C(=O)O[C@]12C,< 0.063 mg/L,8 mg/L,64 mg/L,0.5 mg/L,,,,,
CC[C@H]1OC(=O)[C@H](C)C(=O)[C@H](C)[C@@H](O[C@@H]2O[C@H](C)C[C@H](N(C)C)[C@H]2O)[C@](C)(OC)C[C@@H](C)C(=O)[C@H](C)[C@H]2N(CCNC(=O)OCc3cnc4ccccc4c3)C(=O)O[C@]12C,0.125 mg/L,32 mg/L,> 64 mg/L,,> 64 mg/L,,,,
CC[C@H]1OC(=O)[C@H](C)C(=O)[C@H](C)[C@@H](O[C@@H]2O[C@H](C)C[C@H](N(C)C)[C@H]2O)[C@](C)(OC)C[C@@H](C)C(=O)[C@H](C)[C@H]2N(CNC(=O)NCc3ccc4nccnc4c3)C(=O)O[C@]12C,0.25 mg/L,2 mg/L,2 mg/L,< 0.063 mg/L,,,,,
CC[C@H]1OC(=O)[C@H](C)C(=O)[C@H](C)[C@@H](O[C@@H]2O[C@H](C)C[C@H](N(C)C)[C@H]2O)[C@](C)(OC)C[C@@H](C)C(=O)[C@H](C)[C@H]2N(CNC(=O)Nc3cnc4ccccc4c3)C(=O)O[C@]12C,< 0.063 mg/L,16 mg/L,> 64 mg/L,0.25 mg/L,,,,,
CC[C@H]1OC(=O)[C@H](C)C(=O)[C@H](C)[C@@H](O[C@@H]2O[C@H](C)C[C@H](N(C)C)[C@H]2O)[C@](C)(OC)C[C@@H](C)C(=O)[C@H](C)[C@H]2N(CCCCn3cnc(-c4cccnc4)c3)C(=O)O[C@]12C [TELITHROMYCIN],0.378 mg/L,3.9 mg/L,18 mg/L,< 0.063 mg/L,,inactive,71.5 mg/kg,27.5 mg/kg,
CC[C@H]1OC(=O)[C@H](C)C(=O)[C@H](C)[C@@H](O[C@@H]2O[C@H](C)C[C@H](N(C)C)[C@H]2O)[C@](C)(OC)C[C@@H](C)C(=O)[C@H](C)[C@H]2N(CNC(=O)NCc3ccc4cccnc4c3)C(=O)O[C@]12C,0.5 mg/L,4 mg/L,64 mg/L,< 0.063 mg/L,,,,,
CC[C@H]1OC(=O)[C@@](C)(F)C(=O)[C@H](C)[C@@H](O[C@@H]2O[C@H](C)C[C@H](N(C)C)[C@H]2O)[C@](C)(OC)C[C@@H](C)C(=O)[C@H](C)[C@H]2N(CNC(=O)OCc3cccc4nccnc34)C(=O)O[C@]12C,< 0.063 mg/L,4 mg/L,22.6 mg/L,< 0.063 mg/L,,,,,
CC[C@H]1OC(=O)[C@@](C)(F)C(=O)[C@H](C)[C@@H](O[C@@H]2O[C@H](C)C[C@H](N(C)C)[C@H]2O)[C@](C)(OC)C[C@@H](C)C(=O)[C@H](C)[C@H]2N(CNC(=O)NCc3ccc4nccnc4c3)C(=O)O[C@]12C,< 0.063 mg/L,1 mg/L,1 mg/L,< 0.063 mg/L,,,,,
CC[C@H]1OC(=O)[C@H](C)C(=O)[C@H](C)[C@@H](O[C@@H]2O[C@H](C)C[C@H](N(C)C)[C@H]2O)[C@](C)(OC)C[C@@H](C)C(=O)[C@H](C)[C@H]2N(CNC(=O)OCc3cnc4ccccc4n3)C(=O)O[C@]12C,0.25 mg/L,8 mg/L,> 64 mg/L,0.25 mg/L,,,,,
CC[C@H]1OC(=O)[C@H](C)C(=O)[C@H](C)[C@@H](O[C@@H]2O[C@H](C)C[C@H](N(C)C)[C@H]2O)[C@](C)(OC)C[C@@H](C)C(=O)[C@H](C)[C@H]2N(CCNC(=O)NCc3cnc4ccccc4c3)C(=O)O[C@]12C,0.5 mg/L,16 mg/L,> 64 mg/L,> 64 mg/L,,,,,
CC[C@H]1OC(=O)[C@H](C)C(=O)[C@H](C)[C@@H](O[C@@H]2O[C@H](C)C[C@H](N(C)C)[C@H]2O)[C@](C)(OC)C[C@@H](C)C(=O)[C@H](C)[C@H]2N(CNC(=O)OCc3ccc4nccnc4c3)C(=O)O[C@]12C,< 0.063 mg/L,2 mg/L,16 mg/L,< 0.063 mg/L,,,,,
CC[C@H]1OC(=O)[C@H](C)C(=O)[C@H](C)[C@@H](O[C@@H]2O[C@H](C)C[C@H](N(C)C)[C@H]2O)[C@](C)(OC)C[C@@H](C)C(=O)[C@H](C)[C@H]2N(CNC(=O)OCc3cccc4ncccc34)C(=O)O[C@]12C,0.125 mg/L,32 mg/L,16 mg/L,0.125 mg/L,,,,,
CC[C@H]1OC(=O)[C@H](C)C(=O)[C@H](C)[C@@H](O[C@@H]2O[C@H](C)C[C@H](N(C)C)[C@H]2O)[C@](C)(OC)C[C@@H](C)C(=O)[C@H](C)[C@H]2N(CNC(=O)NCc3cnc4ccccc4n3)C(=O)O[C@]12C,0.25 mg/L,4 mg/L,> 64 mg/L,< 0.063 mg/L,,,,,
CC[C@H]1OC(=O)[C@H](C)C(=O)[C@H](C)[C@@H](O[C@@H]2O[C@H](C)C[C@H](N(C)C)[C@H]2O)[C@](C)(OC)C[C@@H](C)C(=O)[C@H](C)[C@H]2N(CNC(=O)OCc3ccc4ncccc4c3)C(=O)O[C@]12C,< 0.063 mg/L,2 mg/L,8 mg/L,0.25 mg/L,,,,,
CC[C@H]1OC(=O)[C@H](C)C(=O)[C@H](C)[C@@H](O[C@@H]2O[C@H](C)C[C@H](N(C)C)[C@H]2O)[C@](C)(OC)C[C@@H](C)C(=O)[C@H](C)[C@H]2N(CNC(=O)NCc3ccc4ncccc4c3)C(=O)O[C@]12C,0.125 mg/L,1 mg/L,4 mg/L,0.25 mg/L,,,,,
CC[C@H]1OC(=O)[C@@](C)(F)C(=O)[C@H](C)[C@@H](O[C@@H]2O[C@H](C)C[C@H](N(C)C)[C@H]2O)[C@](C)(OC)C[C@@H](C)C(=O)[C@H](C)[C@H]2N(CNC(=O)OCc3ccc4nccnc4c3)C(=O)O[C@]12C,< 0.063 mg/L,2 mg/L,1 mg/L,< 0.063 mg/L,,,71.2 mg/kg,39.5 mg/kg,2.3
CC[C@H]1OC(=O)[C@H](C)C(=O)[C@H](C)[C@@H](O[C@@H]2O[C@H](C)C[C@H](N(C)C)[C@H]2O)[C@](C)(OC)C[C@@H](C)C(=O)[C@H](C)[C@H]2N(CNC(=O)OCc3ccc4cccnc4c3)C(=O)O[C@]12C,< 0.063 mg/L,4 mg/L,64 mg/L,< 0.063 mg/L,,,,,
